The values below come from patent US20180282279A1, “Pantothenamide Analogues” (Radboud Universitair Medisch Centrum, priority 2014, published 2018).

The experiment relates to Plasmodium berghei strain 676c11 (PbGFP-Luc). Put plainly: In vivo rodent malaria model. The note with it: female Wistar rats, 6 mg/kg orally three times a day, day 5-8. The text has this: Female mice (C57 Black 6, 9-10 weeks of age at the start of the experiment) and female rats (Wistar, 150-200 grams at the beginning of the experiment) were housed under standard conditions and experiments were approved by the institutional ethical committee on animal care and experimentation of Radboud University Medical Centre (Nijmegen).
To test our compounds in an in vivo malaria model we used a well described rodent malaria model (Zuckerman and Yoeli, J Infect Dis. 94, 225-36). First, donor mice were infected by 0.2 ml cryopreserved infected blood stocks containing the transgenic Plasmodium berghei strain 676c11 (PbGFP-Luc). After four days the mice were sacrificed and their blood was collected. The parasitemia in the blood from the mice was calculated as percentage of infected red blood cells (RBC) by Giemsa-stained blood smears. Infected blood was diluted to 5×10^7 parasites per ml and 0.2 ml was i.p. injected in rats (inoculation of 10′ parasites per rat). Treatment with chloroquine (6 mg/kg), CXP18.6-017 (100 mg/kg) and CXP18.6-052 (100 mg/kg) started 5 days post inoculation and where given orally three times a day until day eight. From day 5 blood samples were collected and parasitemia was determined by analysis of Giemsa-stained blood smears. The infection and treatment regimes were well tolerated by the animals.

On to `CCN(CC)CCCC(C)Nc1ccnc2cc(Cl)ccc12` (stereo not shown) [chloroquine, reference compound], for which the parasitemia result was “reduced parasitemia to nearly undetectable levels within 3 days”.
